The text below walks through data of PubChem BioAssay (NCI).

Values joined by “and” are separate entries in the source; they are usually repeats but may differ in a detail not shown here. Identical values can stand only once.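 48-hour exposure; five concentrations; linearly interpolated endpoints. GI50 = concentration required for 50% inhibition of growth. TGI denotes the concentration required for complete inhibition of growth.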 Bounds are passed on as bounds.

Some test systems named below: CCRF-CEM leukemia; COLO 205 colon; HCT-116 colon; NCI-H226 lung; OVCAR-4 ovarian; SF-295 CNS; UACC-62 melanoma; HCT-15 colon; NCI/ADR-RES ovarian.
What all share (assay): inhibition of tumour cell growth, NCI panel, 48 h

As for `O=c1[nH]c2ccccc2cc1C(Cl)=C(Cl)Cl`, the TGI in the experiment on CCRF-CEM leukemia, in the experiment on COLO 205 colon, in the experiment on HCT-116 colon, in the experiment with NCI-H226 lung, in the experiment on OVCAR-4 ovarian and in the experiment with SF-295 CNS was above 100 µM each time. The compound further returned a TGI in the experiment on UACC-62 melanoma above 100 µM.
With `O=C1CCCN(c2ccccc2)N1`, the TGI in the experiment with HCT-116 colon, in the experiment on HCT-15 colon, with NCI-H226 lung, with OVCAR-4 ovarian, in the experiment on SF-295 CNS and in the experiment with UACC-62 melanoma was above 100 µM throughout.
For the compound `CCOC(=O)C1(CC)CCCCC(=O)N1` (stereo not drawn), the TGI in the experiment on CCRF-CEM leukemia, with COLO 205 colon, in the experiment with HCT-15 colon, in the experiment on OVCAR-4 ovarian, with SF-295 CNS and in the experiment with UACC-62 melanoma was above 100 µM throughout.
As for `CCOC(=O)CC1=Nc2ccccc2SC1`, the TGI with COLO 205 colon, in the experiment on HCT-116 colon, with HCT-15 colon, with NCI-H226 lung, in the experiment on OVCAR-4 ovarian and in the experiment with SF-295 CNS was above 100 µM each time. The compound also came in with a TGI with UACC-62 melanoma above 100 µM.
With `Cc1ccc(-c2c(N)nc(NC#N)nc2CCC(=O)Nc2ccccc2[N+](=O)[O-])cc1`, the TGI in the experiment on CCRF-CEM leukemia, with COLO 205 colon, in the experiment on HCT-116 colon, with HCT-15 colon, in the experiment with NCI-H226 lung and with OVCAR-4 ovarian was above 100 µM in each case. In addition, the TGI with SF-295 CNS and in the experiment with UACC-62 melanoma was above 100 µM each time.
Consider `C#CCNC(=O)NC(CCCNC(=O)OCc1ccccc1)C(=O)OCc1ccccc1` (stereo not drawn), for which the TGI in the experiment on CCRF-CEM leukemia, in the experiment with COLO 205 colon, in the experiment on HCT-116 colon, in the experiment with HCT-15 colon, with NCI-H226 lung and with OVCAR-4 ovarian was above 100 µM in each case. The TGI in the experiment with SF-295 CNS and in the experiment with UACC-62 melanoma was above 100 µM each time.
Regarding `CCCCCCCCCCCCC(=O)OC(c1cnco1)c1nc(C(O)CC(O)C(O)C(C)O)co1` (stereo not drawn), the GI50 in the experiment on CCRF-CEM leukemia was 0.838 µM; with COLO 205 colon it was 0.587 µM; in the experiment with HCT-116 colon, 0.459 µM; in the experiment on NCI-H226 lung it was 0.28 µM; in the experiment on OVCAR-4 ovarian, 2.02 µM; in the experiment with SF-295 CNS, 1.52 µM. Besides, the GI50 in the experiment with UACC-62 melanoma was 0.896 µM. Also, the TGI with CCRF-CEM leukemia was above 61.5 µM; in the experiment with COLO 205 colon, 1.98 µM and 3.52 µM; in the experiment with HCT-116 colon it was above 100 µM; with HCT-15 colon, above 100 µM; in the experiment with OVCAR-4 ovarian it was 91.5 µM; with SF-295 CNS it was 98.3 µM. Besides, the TGI in the experiment on UACC-62 melanoma is 2.87 µM.
On to `O=C1NC(c2ccc(O)cc2)C2CCC1C2` (stereo not drawn), for which the TGI with CCRF-CEM leukemia, in the experiment with COLO 205 colon, in the experiment with HCT-116 colon, with NCI-H226 lung, in the experiment with OVCAR-4 ovarian and in the experiment with SF-295 CNS was above 100 µM in each case. This compound came in with a TGI in the experiment with UACC-62 melanoma above 100 µM.
For `C[C@@H]1CC[C@H]2C(COCC3=C(C(F)(F)F)O[C@@H]4O[C@@]5(C)CC[C@H]6[C@H](C)CC[C@@H]3[C@@]46OO5)=C(C(F)(F)F)O[C@@H]3O[C@@]4(C)CC[C@@H]1[C@]32OO4`, the GI50 with CCRF-CEM leukemia was below 0.0284 µM; in the experiment on COLO 205 colon it was below 0.01 µM; in the experiment on HCT-116 colon, below 0.01 µM; with HCT-15 colon, below 0.01 µM; in the experiment with NCI-H226 lung, 0.047 µM; in the experiment on NCI/ADR-RES ovarian, 0.543 µM. For the same compound, the values for the GI50 with OVCAR-4 ovarian, with SF-295 CNS and with UACC-62 melanoma were 0.0251 µM, 0.1 µM and 0.0609 µM, respectively. Moreover, the TGI in the experiment on CCRF-CEM leukemia is above 100 µM; with COLO 205 colon it was 0.0835 µM; with HCT-116 colon, above 100 µM; in the experiment with HCT-15 colon it was above 100 µM; with NCI-H226 lung, above 100 µM; with NCI/ADR-RES ovarian it was above 100 µM. Further, the TGI in the experiment on OVCAR-4 ovarian and in the experiment with UACC-62 melanoma was above 100 µM throughout.
For `O=C1NC2(CCCC2)C(=O)C12CCCC2`, the TGI with CCRF-CEM leukemia, with COLO 205 colon, in the experiment with HCT-116 colon, in the experiment with HCT-15 colon, with OVCAR-4 ovarian and in the experiment with SF-295 CNS was above 100 µM in each case. In addition, the TGI in the experiment with UACC-62 melanoma is above 100 µM.
On to `CC(=O)OC1=C2CC3(C)OC(=O)CC(C)(C)C3=CC=C2C=C(C(C)C)C1=O` (stereo not drawn), for which the TGI was 1.02 µM with CCRF-CEM leukemia; 2.05 µM in the experiment on COLO 205 colon; 1.35 µM with HCT-116 colon; 0.392 µM in the experiment on HCT-15 colon; 3.26 µM in the experiment with NCI-H226 lung; 0.915 µM in the experiment with OVCAR-4 ovarian. Further, the TGI was 3.14 µM with SF-295 CNS and 0.725 µM in the experiment on UACC-62 melanoma.
Turning to `CCOC(=O)C1=C(C)Nc2ccccc2S1`, the TGI with CCRF-CEM leukemia, in the experiment on COLO 205 colon, in the experiment on HCT-116 colon, in the experiment on HCT-15 colon, in the experiment on NCI-H226 lung and with OVCAR-4 ovarian was above 100 µM in each case. For the same compound, the TGI in the experiment with SF-295 CNS and in the experiment with UACC-62 melanoma was above 100 µM throughout.
For the compound `C=CCSC[C@H](NC(=O)COc1ccccc1)C(=O)NC(C(=O)OCc1ccc([N+](=O)[O-])cc1)=C(C)C`, the TGI in the experiment on CCRF-CEM leukemia was above 100 µM; with COLO 205 colon, 39 µM; in the experiment with HCT-116 colon, above 100 µM; in the experiment with HCT-15 colon, above 100 µM; in the experiment with NCI-H226 lung, above 100 µM; with OVCAR-4 ovarian, above 100 µM. The TGI in the experiment with SF-295 CNS and in the experiment with UACC-62 melanoma was above 100 µM each time.
On to `COC(=O)C(C#N)=C1c2ccccc2Oc2ccccc21`, for which the TGI in the experiment on CCRF-CEM leukemia, in the experiment with COLO 205 colon, in the experiment with HCT-15 colon, in the experiment with NCI-H226 lung, with OVCAR-4 ovarian and in the experiment on SF-295 CNS was above 100 µM each time. Besides, in the experiment on UACC-62 melanoma, the TGI is above 100 µM.
